Here are results for 15 compounds from patent US8871753B2, “Macrocyclic compounds and their use as kinase inhibitors” (Incyte Corporation, priority 2008, dated 2014).

Counter-ions that a name gives are not always drawn. Like-named read-outs stand apart in the source and are kept apart here. Some results are limits rather than exact numbers.

Common to all, as to format: biochemical
Experiment [1] deals with T1, human JAK1 (a.a. 837-1142) (Homo sapiens, UniProt P23458).
T1 construct: human JAK1 (a.a. 837-1142); His tag (N); made in house; host or cells: insect cells (baculovirus)
T1 sequence (P23458 849-1154): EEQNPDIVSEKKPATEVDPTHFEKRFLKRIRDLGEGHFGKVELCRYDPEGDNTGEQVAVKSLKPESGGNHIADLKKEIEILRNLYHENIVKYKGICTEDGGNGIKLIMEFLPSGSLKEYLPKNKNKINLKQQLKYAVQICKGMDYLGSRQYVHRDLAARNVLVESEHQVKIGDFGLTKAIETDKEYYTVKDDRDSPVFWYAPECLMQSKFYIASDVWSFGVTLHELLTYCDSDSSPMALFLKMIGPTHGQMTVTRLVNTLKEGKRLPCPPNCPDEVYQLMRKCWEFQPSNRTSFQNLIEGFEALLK
Nature of the experiment: In vitro JAK kinase assay (HTRF, phosphorylation of a biotinylated peptide), JAK1. Particulars: read-out: JAK1 IC50. The method, boiled down:
(§1)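 Phosphorylation of a biotinylated peptide by the JAK kinase domain, detected by HTRF with Eu-Py20 and SA-APC. ATP was 90 μM for JAK1, 30 μM for JAK2 and 3 μM for JAK3. Reactions ran 1 h at room temperature and were stopped with EDTA, followed by 40 min antibody binding.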
On the technique in general: TR-FRET usually uses a lanthanide donor and a delayed reading to cut background.

For experiment [2], the target named is T2, human JAK2 (a.a. 828-1132) (Homo sapiens, UniProt O60674).
T2 construct: JAK2 (a.a. 828-1132); His tag (N); made in house; host or cells: insect cells (baculovirus)
T2 sequence (O60674 828-1132): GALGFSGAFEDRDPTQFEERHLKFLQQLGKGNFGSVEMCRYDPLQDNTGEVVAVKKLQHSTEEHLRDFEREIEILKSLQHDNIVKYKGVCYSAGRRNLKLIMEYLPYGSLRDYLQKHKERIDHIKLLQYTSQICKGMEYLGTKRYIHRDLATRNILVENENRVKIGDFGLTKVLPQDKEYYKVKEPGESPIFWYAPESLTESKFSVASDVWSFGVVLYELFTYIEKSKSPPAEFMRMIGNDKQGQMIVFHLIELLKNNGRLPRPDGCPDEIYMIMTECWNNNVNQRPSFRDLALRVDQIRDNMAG
Nature of the experiment: In vitro JAK kinase assay (HTRF, phosphorylation of a biotinylated peptide), JAK2. The method, boiled down:
as §1

Experiment [3] has as its target T3, human JAK3 (a.a. 781-1124) (Homo sapiens, UniProt P52333).
T3 construct: JAK3 (a.a. 781-1124); His tag (N); made in house; host or cells: insect cells (baculovirus)
Kind of experiment: In vitro JAK kinase assay (HTRF, phosphorylation of a biotinylated peptide), JAK3. The method, boiled down:
as §1

The next experiment addresses TYK2 (Homo sapiens, UniProt P29597). Nature of the experiment: TYK2 kinase inhibition (Table A1).
The target in experiment [4] is T4, Recombinant Human Anaplastic Lymphoma Kinase (Homo sapiens, UniProt Q9UM73).
T4 construct: purchased Invitrogen, Carlsbad, Calif
T4 sequence (Q9UM73 19-1620): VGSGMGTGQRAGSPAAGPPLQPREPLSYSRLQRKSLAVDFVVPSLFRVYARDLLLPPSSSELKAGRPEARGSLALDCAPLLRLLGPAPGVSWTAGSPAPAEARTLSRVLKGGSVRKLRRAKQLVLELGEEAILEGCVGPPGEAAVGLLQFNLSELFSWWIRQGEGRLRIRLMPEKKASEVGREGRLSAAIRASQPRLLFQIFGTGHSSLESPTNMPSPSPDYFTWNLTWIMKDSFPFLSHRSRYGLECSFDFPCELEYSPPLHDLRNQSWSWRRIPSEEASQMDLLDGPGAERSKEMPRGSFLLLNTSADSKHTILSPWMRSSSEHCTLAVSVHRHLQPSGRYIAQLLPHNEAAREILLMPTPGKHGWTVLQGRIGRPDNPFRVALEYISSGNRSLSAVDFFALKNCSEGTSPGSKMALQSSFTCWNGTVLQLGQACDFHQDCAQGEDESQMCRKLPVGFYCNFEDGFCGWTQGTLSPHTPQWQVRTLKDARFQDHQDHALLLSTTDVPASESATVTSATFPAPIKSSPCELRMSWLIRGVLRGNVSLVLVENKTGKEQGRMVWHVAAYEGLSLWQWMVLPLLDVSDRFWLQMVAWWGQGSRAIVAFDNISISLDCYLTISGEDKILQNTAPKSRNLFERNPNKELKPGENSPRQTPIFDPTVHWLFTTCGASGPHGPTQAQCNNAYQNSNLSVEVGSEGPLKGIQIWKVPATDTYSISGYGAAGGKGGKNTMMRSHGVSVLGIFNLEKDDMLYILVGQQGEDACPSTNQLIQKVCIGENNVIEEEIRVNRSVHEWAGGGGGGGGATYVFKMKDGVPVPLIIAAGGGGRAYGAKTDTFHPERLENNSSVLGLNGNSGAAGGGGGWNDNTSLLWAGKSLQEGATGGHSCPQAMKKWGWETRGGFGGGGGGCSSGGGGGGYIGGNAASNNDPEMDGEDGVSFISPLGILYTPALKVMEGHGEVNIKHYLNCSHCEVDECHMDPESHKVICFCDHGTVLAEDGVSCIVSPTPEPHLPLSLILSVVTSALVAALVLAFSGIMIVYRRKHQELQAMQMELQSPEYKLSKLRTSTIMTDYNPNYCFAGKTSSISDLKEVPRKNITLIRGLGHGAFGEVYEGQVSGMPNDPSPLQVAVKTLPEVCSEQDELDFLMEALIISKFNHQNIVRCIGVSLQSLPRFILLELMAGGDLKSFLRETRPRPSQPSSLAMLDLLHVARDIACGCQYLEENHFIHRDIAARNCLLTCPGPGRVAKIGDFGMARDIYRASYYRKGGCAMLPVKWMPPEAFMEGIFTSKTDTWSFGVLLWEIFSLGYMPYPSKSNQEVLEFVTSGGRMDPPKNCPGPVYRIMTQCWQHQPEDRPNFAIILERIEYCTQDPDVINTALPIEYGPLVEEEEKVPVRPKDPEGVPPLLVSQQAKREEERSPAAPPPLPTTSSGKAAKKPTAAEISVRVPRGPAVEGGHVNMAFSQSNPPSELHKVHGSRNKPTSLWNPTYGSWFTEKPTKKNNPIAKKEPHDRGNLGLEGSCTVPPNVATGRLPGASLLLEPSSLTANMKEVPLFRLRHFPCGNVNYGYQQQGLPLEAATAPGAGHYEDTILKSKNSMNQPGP
Kind of experiment: ALK HTRF kinase assay. The method, boiled down: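 Kinase activity of the recombinant human protein is measured on a biotinylated peptide, with a Eu-W1024 anti-phosphotyrosine antibody and streptavidin-allophycocyanin generating the homogeneous time-resolved fluorescence signal. Inhibition curves are fitted to yield IC50.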

Setting [5] is: method AA1 (90 μM ATP) or AA2 (1000 μM ATP), not stated per value.
The mark [6] stands for this setting: method AA1 (30 μM ATP) or AA2 (1000 μM ATP), not stated per value.
[7] abbreviates: method AA1 (3 μM ATP) or AA2 (1000 μM ATP), not stated per value.
Where [8] appears, read: compound at a concentration of 500 nM or 1 mM (not specified), cells shown as percentage.
Where [9] appears, read: compound at 500 nM or 1 mM, 90 μM ATP.
Setting [10] is: percentage inhibition of the example compound at a concentration of 500 nM or 1 mM (not specified which).
[11] abbreviates: Table B1, cells without percent sign.

T3 sequence (P52333 781-1124): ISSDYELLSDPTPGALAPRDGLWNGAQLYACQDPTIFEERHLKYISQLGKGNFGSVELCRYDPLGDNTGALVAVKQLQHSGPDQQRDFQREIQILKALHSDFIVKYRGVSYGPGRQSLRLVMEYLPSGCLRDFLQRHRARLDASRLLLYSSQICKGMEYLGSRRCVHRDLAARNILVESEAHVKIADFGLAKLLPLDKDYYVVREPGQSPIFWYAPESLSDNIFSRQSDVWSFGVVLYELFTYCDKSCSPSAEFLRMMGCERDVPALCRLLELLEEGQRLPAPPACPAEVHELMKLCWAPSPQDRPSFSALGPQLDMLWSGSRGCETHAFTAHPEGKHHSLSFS
Chain of TYK2 (P29597 whole entry): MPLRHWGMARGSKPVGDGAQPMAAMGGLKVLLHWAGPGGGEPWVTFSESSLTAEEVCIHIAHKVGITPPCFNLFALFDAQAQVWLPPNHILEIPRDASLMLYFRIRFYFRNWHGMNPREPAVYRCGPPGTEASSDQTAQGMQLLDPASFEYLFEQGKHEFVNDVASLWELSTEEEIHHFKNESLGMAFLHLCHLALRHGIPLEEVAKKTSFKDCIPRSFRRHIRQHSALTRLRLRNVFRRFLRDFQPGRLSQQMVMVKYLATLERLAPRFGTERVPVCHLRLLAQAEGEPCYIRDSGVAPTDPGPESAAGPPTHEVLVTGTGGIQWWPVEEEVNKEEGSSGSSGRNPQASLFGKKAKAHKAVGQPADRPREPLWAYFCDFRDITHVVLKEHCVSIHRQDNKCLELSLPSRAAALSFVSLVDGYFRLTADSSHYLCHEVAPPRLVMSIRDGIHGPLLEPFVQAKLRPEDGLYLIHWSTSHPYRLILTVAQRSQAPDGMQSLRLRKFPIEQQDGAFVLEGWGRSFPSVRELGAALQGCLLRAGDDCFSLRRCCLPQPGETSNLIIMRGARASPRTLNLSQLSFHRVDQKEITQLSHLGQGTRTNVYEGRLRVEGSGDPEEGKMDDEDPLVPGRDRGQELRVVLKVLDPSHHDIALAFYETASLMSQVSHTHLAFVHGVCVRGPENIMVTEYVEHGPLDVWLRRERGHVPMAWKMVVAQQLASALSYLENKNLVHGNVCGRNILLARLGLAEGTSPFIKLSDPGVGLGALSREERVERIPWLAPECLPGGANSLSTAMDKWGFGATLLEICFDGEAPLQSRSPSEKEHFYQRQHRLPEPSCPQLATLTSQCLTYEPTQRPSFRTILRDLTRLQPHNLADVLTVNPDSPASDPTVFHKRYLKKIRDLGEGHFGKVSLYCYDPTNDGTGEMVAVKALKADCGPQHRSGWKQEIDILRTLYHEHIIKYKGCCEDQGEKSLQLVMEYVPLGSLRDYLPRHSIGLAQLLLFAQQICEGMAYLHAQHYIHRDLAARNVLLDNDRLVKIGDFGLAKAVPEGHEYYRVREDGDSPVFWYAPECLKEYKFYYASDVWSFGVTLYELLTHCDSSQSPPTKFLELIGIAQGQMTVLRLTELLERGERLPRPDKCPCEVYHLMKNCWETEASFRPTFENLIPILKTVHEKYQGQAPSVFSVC

For `Clc1cnc2nc1Nc1cccc(c1)CCc1cccc(c1)N2` [Example A2, 6-Chloro-2,4,8,22-tetraazatetracyclo[14.3.1.1(3,7).1(9,13)]docosa-1(20),3(22),4,6,9(21),10,12,16,18-nonaene trifluoroacetate], the IC50 in experiment [1] (setting [5]) was 12 nM; in experiment [2] (setting [6]) it was 9.3 nM; in experiment [3] (setting [7]), 26 nM; at TYK2 it was 35 nM; in experiment [4] (90 μM ATP), 657 nM.
For `Cc1cnc(NC(=O)Nc2ccc3cc2CCc2cccc(c2)Nc2ncc(Cl)c(n2)N3)s1` [Example B248, N-[6-Chloro-2,4,8,22-tetraazatetracyclo[14.3.1.1(3,7).1(9,13)]docosa-1(20),3(22),4,6,9(21),10,12,16,18-nonaen-12-yl]-N′-(5-methyl-1,3-thiazol-2-yl)urea trifluoroacetate], the IC50 in experiment [1] (Table B1) is 77 nM; in experiment [2] (Table B1), 171 nM; in experiment [3] (Table B1), 46 nM; on TYK2 (Table B1), 25 nM. Further, the “ALK % of inhibition at a concentration of 500 nM or 1 mM” value (“ALK % of inhibition” for short) in experiment [4] (setting [8]) was 32%.
In the same order, the values of `O=C(NCCN1CCCC1)Nc1ccc2cc1CCc1cccc(c1)Nc1ncc(Cl)c(n1)N2` [Example B255, N-[6-Chloro-2,4,8,22-tetraazatetracyclo[14.3.1.1(3,7).1(9,13)]docosa-1(20),3(22),4,6,9(21),10,12,16,18-nonaen-12-yl]-N′-(2-pyrrolidin-1-ylethyl)urea bis(trifluoroacetate)] are 5.5 nM, 14 nM, 53 nM, 25 nM and 32%.
As for `COC(=O)c1cc2cc(c1)OCCSc1cccc(c1)Nc1nc(ncc1Cl)N2` [Example D43, Methyl 6-chloro-17-oxa-14-thia-2,4,8,24-tetraazatetracyclo[16.3.1.1(3,7).1(9,13)]tetracosa-1(22),3(24),4,6,9(23),10,12,18,20-nonaene-20-carboxylate trifluoroacetate], the IC50 came to 2.9 nM in experiment [1] (Table D1); 5.3 nM in experiment [2] (Table D1); 66 nM in experiment [3] (Table D1); 37 nM against TYK2 (Table D1); 390 nM in experiment [4] (Table D1, 90 μM ATP).
In the case of `NS(=O)(=O)N1CCCC(C(=O)Nc2ccc3cc2CCc2cccc(c2)Nc2ncc(Cl)c(n2)N3)C1` (stereo not drawn) [Example A73, 1-(Aminosulfonyl)-N-[6-chloro-2,4,8,22-tetraazatetracyclo[14.3.1.1(3,7).1(9,13)]docosa-1(20),3(22),4,6,9(21),10,12,16,18-nonaen-12-yl]piperidine-3-carboxamide trifluoroacetate], the IC50 amounted to 10 nM in experiment [1] (setting [5]), 0.7 nM in experiment [2] (setting [6]), 3 nM in experiment [3] (setting [7]) and 8 nM on TYK2. Also, the “ALK % of inhibition” value in experiment [4] (setting [9]) was found to be 49%.
Turning to `N#Cc1ccc(N2CCN(C(=O)Nc3ccc4cc3CCc3cncc(c3)Nc3ncc(Cl)c(n3)N4)CC2)nc1` [Example B310, N-[6-Chloro-2,4,8,18,22-pentaazatetracyclo[14.3.1.1(3,7).1(9,13)]docosa-1(20),3(22),4,6,9(21),10,12,16,18-nonaen-12-yl]-4-(5-cyanopyridin-2-yl)piperazine-1-carboxamide tris(trifluoroacetate)], the IC50 was 24 nM in experiment [1] (Table B1), 61 nM in experiment [2] (Table B1), > 400 nM in experiment [3] (Table B1) and 44 nM at TYK2 (Table B1). In addition, the “ALK % of inhibition” value in experiment [4] (setting [10]) turned out to be 74%.
Consider `Cn1ccc(C(=O)Nc2ccc3cc2CCc2cccc(c2)Nc2ncc(Cl)c(n2)N3)n1` [Example B31, N-[6-Chloro-2,4,8,22-tetraazatetracyclo[14.3.1.1(3,7).1(9,13)]docosa-1(20), 3(22),4,6,9(21),10,12,16,18-nonaen-12-yl]-1-methyl-1H-pyrazole-3-carboxamide trifluoroacetate], for which the 50% inhibitory concentration (IC50) in experiment [1] (Table B1) was 5.4 nM; in experiment [2] (Table B1), 3.7 nM; in experiment [3] (Table B1), 69 nM; on TYK2 (Table B1), 10 nM; in experiment [4] (setting [11]), > 10000 nM.
For the compound `O=C(Nc1ccc2cc1CCc1cccc(c1)Nc1ncc(Cl)c(n1)N2)N[C@H]1CCN(Cc2ccccc2)C1` [Example B173, N-[(3S)-1-Benzylpyrrolidin-3-yl]-N′-[6-chloro-2,4,8,22-tetraazatetracyclo[14.3.1.1(3,7).1(9,13)]docosa-1(20),3(22),4,6,9(21),10,12,16,18-nonaen-12-yl]urea bis(trifluoroacetate)], the IC50 in experiment [1] (Table B1) worked out at 3.5 nM; in experiment [2] (Table B1), 23 nM; in experiment [3] (Table B1), 163 nM; at TYK2 (Table B1), 55 nM. For the same compound, in experiment [4] (setting [8]), the “ALK % of inhibition” value amounted to 14%.
As to `O=C(Nc1ccc2cc1CCc1cccc(c1)Nc1ncc(Cl)c(n1)N2)c1ccc(Cl)cc1` [Example B43, 4-Chloro-N-[6-chloro-2,4,8,22-tetraazatetracyclo[14.3.1.1(3,7).1(9,13)]docosa-1(20),3(22),4,6,9(21),10,12,16,18-nonaen-12-yl]benzamide hydrochloride], the half-maximal inhibitory concentration (IC50) was found to be 0.79 nM in experiment [1] (Table B1); 1.1 nM in experiment [2] (Table B1); 6.7 nM in experiment [3] (Table B1); 2.9 nM against TYK2 (Table B1); 170 nM in experiment [4] (setting [11]).
As to `CN(Cc1ccc2cc1CCc1cncc(c1)Nc1ncc(Cl)c(n1)N2)C(=O)C1CCN(c2ncccn2)CC1` [Example B338, N-{[6-Chloro-2,4,8,18,22-pentaazatetracyclo[14.3.1.1(3,7).1(9,13)]docosa-1(20),3(22),4,6,9(21),10,12,16,18-nonaen-12-yl]methyl}-N-methyl-1-pyrimidin-2-ylpiperidine-4-carboxamide tris(trifluoroacetate)], the IC50 in experiment [1] (Table B1) was 70 nM; in experiment [2] (Table B1) it was 130 nM; in experiment [3] (Table B1), > 200 nM; against TYK2 (Table B1), > 200 nM. Further, the “ALK % of inhibition” value in experiment [4] (setting [10]) stood at 21%.
Take `O=C(Nc1ccccc1)N[C@@H](CO)C(=O)Nc1ccc2cc1CCc1cccc(c1)Nc1ncc(Cl)c(n1)N2` [Example A68, (2S)-2-[(Anilinocarbonyl)amino]-N-[6-chloro-2,4,8,22-tetraazatetracyclo[14.3.1.1(3,7).1(9,13)]docosa-1(20),3(22),4,6,9(21),10,12,16,18-nonaen-12-yl]-3-hydroxypropanamide trifluoroacetate]: the IC50 in experiment [1] (setting [5]) is 2 nM; in experiment [2] (setting [6]) it was 2.8 nM; in experiment [3] (setting [7]) it was 4.1 nM; against TYK2, 11 nM. The “ALK % of inhibition” value in experiment [4] (setting [9]) is listed as 46%.
As to `N#Cc1cccc(S(=O)(=O)N2CCC(CC(=O)Nc3ccc4cc3CCc3cncc(c3)Nc3ncc(Cl)c(n3)N4)CC2)c1` [Example A228, N-[6-Chloro-2,4,8,18,22-pentaazatetracyclo[14.3.1.1(3,7).1(9,13)]docosa-1(20),3(22),4,6,9(21),10,12,16,18-nonaen-12-yl]-2-{1-[(3-cyanophenyl)sulfonyl]piperidin-4-yl}acetamide bis(trifluoroacetate)], the IC50 in experiment [1] (setting [5]) was 6.9 nM; in experiment [2] (setting [6]) it was 114 nM; in experiment [3] (setting [7]), > 400 nM; against TYK2, 109 nM. Moreover, the “ALK % of inhibition” value in experiment [4] (setting [9]) stood at 62%.
In the case of `CC(C)(C)C(=O)Nc1ccc2cc1CCc1cccc(c1)Nc1ncc(Cl)c(n1)N2` [Example B58, N-[6-Chloro-2,4,8,22-tetraazatetracyclo[14.3.1.1(3,7).1(9,13)]docosa-1(20), 3(22),4,6,9(21),10,12,16,18-nonaen-12-yl]-2,2-dimethylpropanamide trifluoroacetate], the IC50 in experiment [1] (Table B1) is 365 nM; in experiment [2] (Table B1) it was 47 nM; in experiment [3] (Table B1) it was 107 nM; at TYK2 (Table B1), 228 nM; in experiment [4] (setting [11]) it was > 1000 nM.
As to `CC(=O)Nc1ccc(C(=O)Nc2ccc3cc2CCc2cccc(c2)Nc2ncc(Cl)c(n2)N3)cc1` [Example B45, 4-(Acetylamino)-N-[6-chloro-2,4,8,22-tetraazatetracyclo[14.3.1.1(3,7).1(9,13)]docosa-1(20),3(22),4,6,9(21),10,12,16,18-nonaen-12-yl]benzamide trifluoroacetate], the IC50 in experiment [1] (Table B1) was 0.88 nM; in experiment [2] (Table B1), 0.6 nM; in experiment [3] (Table B1), 3.7 nM; against TYK2 (Table B1), 0.53 nM; in experiment [4] (setting [11]), 95 nM.
The corresponding values for `O=C(Nc1ccc2cc1CCc1cccc(c1)Nc1ncc(Cl)c(n1)N2)c1ccc(F)cc1` [Example B49, N-[6-Chloro-2,4,8,22-tetraazatetracyclo[14.3.1.1(3,7).1(9,13)]docosa-1(20), 3(22),4,6,9(21),10,12,16,18-nonaen-12-yl]-4-fluorobenzamide trifluoroacetate] are 0.59 nM, 0.54 nM, 3.6 nM, 1.4 nM and 80 nM.

Usually IC50 stands for the concentration needed to halve the response being measured.
